pIC50: −log10 of the molar value. Values after ≈ are worked out from the molar mass of the structure shown.
Key:
[1] = Solubility (thermodynamic, shake-flask); type: physicochemical; conditions: thermodynamic from solid; aqueous phosphate buffer (pH 7.4), 24 hours at 25° C.
Description: The thermodynamic solubility of a research compound is measured under standard conditions. It is a shake-flask approach that uses 10 mM DMSO solutions which are supplied from the Compound Managements liquid store and is a high throughput method. The dried compounds are equilibrated in an aqueous phosphate buffer (pH 7.4) for 24 hours at 25° C., the portion with the dissolved compound is then separated from the remains. The solutions are analyzed and quantified using UPLC/MS/MS, QC-samples are incorporated in each assay-run to ensure the quality of the assay.

[2] = Protein binding measurements in human plasma (Hu PPB); type: in vitro ADME; conditions: equilibrium dialysis for 18 hours, fraction unbound
Description: The automated equilibrium dialysis assay in human plasma uses the RED (Rapid Equilibrium Dialysis) Device and sample handling. The assay generally runs over two to three days including delivery of results. After dialysis for 18 hours, plasma and buffer samples are prepared for analysis by liquid chromatography and mass spectrometry. Samples are generally tested in singlicates and quantified by LC/MSMS by using a 7-point calibration curve in plasma. The compounds are pooled together in plasma pools up to 10 compounds. Three reference compounds are used in each run, Propranolol, Metoprolol and Warfarin. Warfarin is used as a control in each pool and Propranolol and Metoprolol are placed randomly in each run. An in-house Excel macro is used for preparation of files for the robot and the mass spectrometer and is also used for the calculations of fraction unbound (fu %) in plasma.

[3] = test system: MCF7-Luciferase cell line; assay: Control reporter (MCF7-Luciferase); type: cell-based; conditions: MCF7-Luciferase cells, luciferase activity after 24 hours
Description: (iii) Control Reporter (MCF7-Luciferase)
MCF7-Luciferase cell line was obtained from […] (catalog number SC050-L) and was maintained in DMEM containing 10% fetal calf serum, 2 mM glutamine. Cells were grown in a humidified incubator at 37° C. with 5% CO2. Cells were distributed to flat bottom white polystyrene TC treated 384 well plates at a density of 3,500 cells/well in 30 μL. Cells were incubated for 24 hours at 37° C. with 5% CO2. Cells were acoustically dosed using an Echo 555, with compounds serially diluted in 100% DMSO. Plates were incubated for an additional 24 hours. Cells were examined for luciferase activity through the addition of 30 μL Bright-Glo luciferase (Promega catalog number E2620). Plates were incubated for 10 minutes at room temperature and luminescence was read using Tecan plate reader. The data obtained with each compound was exported to […] software to perform curve fitting analysis.

MCF7-Tead cell line = assay: TEAD reporter assay; type: cell-based; conditions: MCF7-Tead cells, luciferase activity after 24 hours
Description: MCF7-Tead cell line was obtained from BPS BIOSCIENCE (catalog number 60618) and was maintained in DMEM containing 10% fetal calf serum, 2 mM glutamine, and 400 μg/ml G418. Cells were grown in a humidified incubator at 37° C. with 5% CO2. Cells were distributed to flat bottom white polystyrene TC treated 384 well plates at a density of 3,500 cells/well in 30 uL. Cells were incubated for 24 hours at 37° C. with 5% CO2. Cells were acoustically dosed using an Echo 555, with compounds serially diluted in 100% DMSO. Plates were incubated for an additional 24 hours. Cells were examined for luciferase activity through the addition of 30 μL Bright-Glo luciferase (Promega catalog number E2620). Plates were incubated for 10 minutes at room temperature and luminescence was read using Tecan plate reader. The data obtained with each compound was exported to […] software to perform curve fitting analysis.

TEAD4(217-434) = TEAD4(217-434) (Homo sapiens (Human), UniProt Q15561); assay: TEAD4 FRET; type: binding; conditions: depalmitoylated, biotinylated TEAD4(217-434), FAM labelled Probe A, 120 min at 25° C.
Chain of TEAD4(217-434) (Q15561 217-434): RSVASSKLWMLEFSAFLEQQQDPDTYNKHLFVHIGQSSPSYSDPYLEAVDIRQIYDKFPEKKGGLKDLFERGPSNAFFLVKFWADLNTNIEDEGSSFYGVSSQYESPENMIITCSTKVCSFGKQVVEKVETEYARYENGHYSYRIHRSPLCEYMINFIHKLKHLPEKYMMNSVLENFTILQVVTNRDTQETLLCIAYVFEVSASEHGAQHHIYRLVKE
Description: Compounds were dosed with a final DMSO concentration of 1% (v/v). Compound IC50 values were assessed following a 10-point, half-log10 dilution schema starting at 100 μM compound concentration. Specifically, human TEAD protein from TEAD4(217-434) was cloned into an overexpression vector, expressed as an N-terminal HIS-TEV-Avi-tagged fusion protein in E coli, and subsequently purified, then protein was chemically depalmitoylated & biotinylated. The assay was performed in 384-well LV plates (384-well black, medium binding, PS, HIBASE, GREINER #784076) and run in the presence and absence of the compound of interest. Each well of 5 μL assay mixture contained 10 mM Tris-HCl (pH 7.5), 100 mM NaCl, 0.05 mM EDTA, 1 mM TECP, 1% DMSO, 0.03% Pluronic acid F127, 20 nM dePal Avi TEAD4 (217-434)-depalmitoylated & biotinylated protein, 0.8 nM Streptavidin Terbium cryptate (CisBio #610SATLB), 625 nM FAM labelled Probe A. Reactions were incubated at 25° C. for 120 min before reading on a PHERASTAR FSX Plate Reader (337 520 490 HTRF module required) (Supplier BMP).
The data file from the PHERAstar FSX contains both the acceptor (520 nm) and donor channels (490 nm) (“Channel A”=acceptor channel (520 nm), “Channel B”=donor channel (490 nm)). The ratio of the donor and acceptor (Channel A/Channel B) is calculated within Genedata Assay Analyzer.
Probe A is 3′,6′-dihydroxy-3-oxo-N-{8-[2-(5-{2-[4-(trifluoromethyl)anilino]phenyl}-2H-tetrazol-2-yl)acetamido]octyl}-3H-spiro[[2]benzofuran-1,9′-xanthene]-5-carboxamide;

Row | solubility at 24 h [1] | Hu PPB (% free) [2] | pIC50 [3] | pIC50 (MCF7-Tead cell line) | pIC50 (TEAD4(217-434)) | Structure (SMILES)
1 | < 1.6 µM | 5.4 % free | 4.54 | 6.73 | 7.52 | C=CC(=O)N1CCC[C@H](Nc2nnc(-c3ccc(C(F)(F)F)cc3)c3ccccc23)C1 [Example 50, (S)-1-(3-((4-(4-(trifluoromethyl)phenyl)phthalazin-1-yl)amino)piperidin-1-yl)prop-2-en-1-one]
2 | 2.4 µM (≈ 1.06 µg/mL) | 5.9 % free | 4.79 | 7.59 | 7.59 | C=CC(=O)N1C[C@@H](Nc2nnc(-c3ccc(C(F)(F)F)cc3)c3ccccc23)C[C@H]1CO [Example 48, 1-((2S,4S)-2-(hydroxymethyl)-4-((4-(4-(trifluoromethyl)phenyl)phthalazin-1-yl)amino)pyrrolidin-1-yl)prop-2-en-1-one]
3 | 19 µM (≈ 8.1 µg/mL) | 0.8 % free | 4.71 | 6.17 | 7.15 | C=CC(=O)NCC1(Nc2nnc(-c3ccc(C(F)(F)F)cc3)c3ccccc23)CCC1 [Example 42, N-((1-((4-(4-(trifluoromethyl)phenyl)phthalazin-1-yl)amino)cyclobutyl)methyl)acrylamide]
4 | 3 µM (≈ 1.24 µg/mL) | 1.6 % free | < 4.50 | 6.45 |  | C=CC(=O)NC1(CNc2nnc(-c3ccc(C(F)(F)F)cc3)c3ccccc23)CC1 [Example 40, N-(1-(((4-(4-(trifluoromethyl)phenyl)phthalazin-1-yl)amino)methyl)cyclopropyl)acrylamide]
5 | 20 µM (≈ 8.25 µg/mL) | 1.4 % free | < 4.50 | 8.30 | 7.89 | C=CC(=O)N1CC[C@H](Nc2ncc(-c3ccc(C(F)(F)F)cc3)c3ncccc23)C1 [Example 39, (S)-1-(3-((8-(4-(trifluoromethyl)phenyl)-1,6-naphthyridin-5-yl)amino)pyrrolidin-1-yl)prop-2-en-1-one]
6 | 165 µM (≈ 72.9 µg/mL) | 9.8 % free | < 4.50 | 7.24 | 7.23 | C=CC(=O)N1C[C@H](CO)[C@H](Nc2nnc(-c3ccc(C(F)(F)F)cc3)c3ccccc23)C1 [Example 49, 1-((3S,4S)-3-(hydroxymethyl)-4-((4-(4-(trifluoromethyl)phenyl)phthalazin-1-yl)amino)pyrrolidin-1-yl)prop-2-en-1-one]
7 | 191 µM (≈ 79 µg/mL) | 12.5 % free | < 4.50 | 7.47 |  | C=CC(=O)N1CC[C@H](Nc2ncc(-c3ccc(C(F)(F)F)cn3)c3ncccc23)C1 [Example 38, (S)-1-(3-((8-(5-(trifluoromethyl)pyridin-2-yl)-1,6-naphthyridin-5-yl)amino)pyrrolidin-1-yl)prop-2-en-1-one]

More lines, now with the values behind:

Row | Structure (SMILES) | solubility at 24 h [1] | Hu PPB (% free) [2] | pIC50 [3] | pIC50 (MCF7-Tead cell line) | pIC50 (TEAD4(217-434))
8 | C=CC(=O)N1C[C@H](O)[C@H](Nc2nnc(-c3ccc(C(F)(F)F)cc3)c3cccc(F)c23)C1 [Example 14, 1-((3R,4S)-3-((8-fluoro-4-(4-(trifluoromethyl)phenyl)phthalazin-1-yl)amino)-4-hydroxypyrrolidin-1-yl)prop-2-en-1-one] | 39 µM (≈ 17.4 µg/mL) | 7.7 % free | 4.72 | 7.59 | 7.31
9 | C=CC(=O)N1CC[C@H](Nc2nnc(-c3ccc(C(F)(F)F)cn3)c3cccnc23)C1 [Example 16, (S)-1-(3-((5-(5-(trifluoromethyl)pyridin-2-yl)pyrido[2,3-d]pyridazin-8-yl)amino)pyrrolidin-1-yl)prop-2-en-1-one] | 114 µM (≈ 47.2 µg/mL) | 25.0 % free | < 4.50 | 6.45 | 6.57
10 | C=CC(=O)N1C[C@@H](CO)[C@H](Nc2nnc(-c3ccc(C(F)(F)F)cc3)c3ncccc23)C1 [Example 25, 1-((3R,4S)-3-(hydroxymethyl)-4-((8-(4-(trifluoromethyl)phenyl)pyrido[2,3-d]pyridazin-5-yl)amino)pyrrolidin-1-yl)prop-2-en-1-one] | 32 µM (≈ 14.2 µg/mL) | 12.0 % free | < 4.50 | 7.60 | 7.24
11 | CC#CC(=O)N1CC[C@H](Nc2nnc(-c3ccc(C(F)(F)F)cc3)c3ccccc23)C1 [Example 20, (S)-1-(3-((4-(4-(trifluoromethyl)phenyl)phthalazin-1-yl)amino)pyrrolidin-1-yl)but-2-yn-1-one] | 33 µM (≈ 14 µg/mL) | 2.0 % free | 4.65 | 6.36 | 
12 | C=CC(=O)N1CC[C@H](Nc2nnc(-c3ccc(C(F)(F)F)cc3)c3cccnc23)C1 [Example 8, (S)-1-(3-((5-(4-(trifluoromethyl)phenyl)pyrido[2,3-d]pyridazin-8-yl)amino)pyrrolidin-1-yl)prop-2-en-1-one] | 32 µM (≈ 13.2 µg/mL) | 12.0 % free | < 4.50 | 7.14 | 7.25
13 | C=CC(=O)N1CC[C@H](Nc2nnc(-c3ccc(C(F)(F)F)cc3)c3ncccc23)C1 [Example 7, (S)-1-(3-((8-(4-(trifluoromethyl)phenyl)pyrido[2,3-d]pyridazin-5-yl)amino)pyrrolidin-1-yl)prop-2-en-1-one] | 8.6 µM (≈ 3.56 µg/mL) | 9.0 % free | 4.55 | 7.09 | 7.48
14 | C=CC(=O)N1CC[C@H](Nc2nnc(-c3ccc(C(F)(F)F)cc3)c3ccccc23)C1 [Example 9, (S)-1-(3-((4-(4-(trifluoromethyl)phenyl)phthalazin-1-yl)amino)pyrrolidin-1-yl)prop-2-en-1-one] | < 0.8 µM | 4.7 % free | < 4.50 | 7.22 | 
15 | C=CC(=O)N1C[C@@H](F)[C@H](Nc2nnc(-c3ccc(C(F)(F)F)cc3)c3ncccc23)C1 [Example 3, 1-((3R,4R)-3-fluoro-4-((8-(4-(trifluoromethyl)phenyl)pyrido[2,3-d]pyridazin-5-yl)amino)pyrrolidin-1-yl)prop-2-en-1-one] | 10 µM (≈ 4.31 µg/mL) |  | 4.56 | 7.17 | 7.03
16 | C=CC(=O)N1CC(Nc2nc(-c3ccc(C(F)(F)F)cc3)nc3ccccc23)C1 [Comparative Example B, 1-[3-({2-[4-(trifluoromethyl)phenyl]-4-quinazolinyl}amino)-1-azetidinyl]-2-propen-1-one, reference compound] | 2 µM (≈ 0.797 µg/mL) |  | < 4.50 | 6.79 | 7.52

Reference: patent publication US20240116926A1, “HETEROAROMATIC COMPOUNDS” (AstraZeneca AB, priority 2022, published 2024)
